Assay results published in patent publication US4317824A, “Derivatives of quinoxaline-1,4-dioxides” (Abic, Ltd., priority 1976, dated 1982).
Converted amounts (≈) assume the structure as drawn.

Legend:
[1] = system: B. Subtilis; assay: antimicrobial activity, minimal inhibitory concentration, B. Subtilis; type: cell-based; details: Bacillus subtilis
Procedure: (§1) The antimicrobial activity of some compounds according to the present invention was measured and the results are shown in the following Tables. The activity is indicated as the minimal inhibitory concentration in μg/ml.

[2] = system: Staph. Aur.; assay: antimicrobial activity, minimal inhibitory concentration, Staph. Aur.; type: cell-based
Procedure: as §1

[3] = Acute oral LD50 in mice; details: mouse, in vivo
[4] = system: E. Coli; assay: U. Tract infections in mice (E. Coli); type: in vivo; details: U. Tract infections (E. Coli), 2,5 mg × 10 days
Procedure: (§2) Some compounds of general formula Id were tested also in vivo.

[5] = Acute oral LD50 in chicks; details: chicken, in vivo
[6] = system: E. Coli; assay: Systemic E. Coli infection in mice; type: in vivo; details: systemic E. Coli infection, 1,25 mg × 2 per day
Procedure: as §2

[7] = system: E. Coli; assay: antimicrobial activity, minimal inhibitory concentration, E. Coli; type: cell-based; details: Escherichia coli
Procedure: as §1

[8] = growth promotion experiment with male turkeys for 4 weeks; type: in vivo; details: P<0.001
Text: The results were statistically significant (P<0.001).

[9] = system: St. aur; assay: Systemic St. aur infection in mice; type: in vivo; details: systemic St. aur infection, 2,5 mg × 2 per day
Procedure: as §2

[10] = system: Salm. Typh.; assay: antimicrobial activity, minimal inhibitory concentration, Salm. Typh.; type: cell-based; details: read-out: minimal inhibitory concentration
Procedure: as §1

[11] = system: Mycoplasma gallisept; assay: antimicrobial activity, minimal inhibitory concentration, Mycoplasma gallisept; type: cell-based
Procedure: as §1

SMILES: CCOC(=O)NNC(=NO)c1c[n+]([O-])c2ccccc2[n+]1[O-] [Example 35, 2-(carbazinic acid ethyl ester)-carboxaldoxime-quinoxaline-1,4-dioxide]
- MIC [1]: 10 µg/mL (≈ 32.5 µM)
- MIC [2]: 10 µg/mL (≈ 32.5 µM)
- LD50 [3]: 4950 mg/kg
- Protection [4]: + (indicates protection >80%)
- LD50 [5]: 1500 mg/kg
- Protection [6]: + (indicates protection >80%)
- MIC [7]: 40 to 50 µg/mL (≈ 130 to 163 µM)
- increase in weight gain ([8]; 30 g/ton in the feed): 18.7%
- increase in weight gain ([8]; 50 g/ton in the feed): 18.5%
- increase in weight gain ([8]; 75 g/ton in the feed): 16%
- Protection [9]: + (indicates protection >80%)
- MIC [10]: 10 to 25 µg/mL (≈ 32.5 to 81.4 µM)
- MIC [11]: 10 to 25 µg/mL (≈ 32.5 to 81.4 µM)
